Like-named read-outs stand apart in the source and are kept apart here. Starred links: 1 amine or outer side, 2 acyl side, 3 side chain; linkers in the order of their positions; H or OH if unused. Non-standard residues stand in square brackets, D forms with d. Residues, ends and D or L forms follow the SMILES beside them. Groups on a side chain read outwards from the residue. *: point of attachment. C18 diacid = O=C(O)CCCCCCCCCCCCCCCCC(=O)*; γGlu = O=C(O)[C@H](CCC(=O)[*:2])N[*:1]; AEEA = NCCOCCOCC(=O)O; Aib = CC(C)(N)C(=O)O
Target: T1, human CRF2α receptor (Homo sapiens, UniProt Q13324)
T1 construct: expressed in transfected cells; host or cells: TeloHEAC
T1 sequence (Q13324 1-411): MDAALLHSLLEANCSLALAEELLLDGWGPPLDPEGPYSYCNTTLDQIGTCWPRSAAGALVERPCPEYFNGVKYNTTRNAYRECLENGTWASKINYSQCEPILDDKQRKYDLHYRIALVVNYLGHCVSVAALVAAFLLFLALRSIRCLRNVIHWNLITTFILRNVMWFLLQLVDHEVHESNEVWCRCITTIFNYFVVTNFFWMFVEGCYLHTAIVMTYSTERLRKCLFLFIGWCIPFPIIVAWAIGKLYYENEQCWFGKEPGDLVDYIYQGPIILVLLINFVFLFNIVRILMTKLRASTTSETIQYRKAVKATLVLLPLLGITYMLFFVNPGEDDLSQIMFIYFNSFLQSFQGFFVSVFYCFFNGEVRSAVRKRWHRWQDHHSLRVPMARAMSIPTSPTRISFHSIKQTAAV
Assay: cAMP agonism at human CRF2 α receptor in TeloHEAC cells (Example 7)
Assay type: cell-based
Conditions: cAMP HTRF, TeloHEAC cells stably expressing human CRF2 α
Outline: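 HTRF ratio 665/620 nm, read 1 h after lysis reagents, reports cAMP. Cells: thawed stocks, 2000/well, 30 min RT with compound in HBSS, 20 mM HEPES, 0 or 0.1% HSA, 2 mM IBMX. Activity normalised to UCN2 1000 nM = 100%; EC50 from half-maximal activation.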

[1] = 0% HSA, read-out: EC50 [nM], 0% HSA
[2] = 0.1% HSA, read-out: EC50 [nM], 0.1% HSA

| EC50 [1] | EC50 [2] | SMILES |
| --- | --- | --- |
| 2.36 nM | – | CC[C@H](C)[C@H](N)C(=O)N[C@H](C(=O)N[C@@H](CC(C)C)C(=O)N[C@@H](CO)C(=O)N[C@@H](CC(C)C)C(=O)N[C@@H](CC(=O)O)C(=O)N[C@H](C(=O)N1CCC[C@H]1C(=O)N[C@H](C(=O)N[C@@H](CCCCN)C(=O)N[C@@H](CC(C)C)C(=O)N[C@@H](CCCCNC(=O)COCCOCCNC(=O)COCCOCCNC(=O)CC[C@H](NC(=O)CCCCCCCCCCCCCCCCC(=O)O)C(=O)O)C(=O)N[C@@H](CCC(N)=O)C(=O)N[C@@H](CCCCN)C(=O)N[C@@H](CC(C)C)C(=O)N[C@@H](CC(C)C)C(=O)N[C@@H](CCCCN)C(=O)N[C@@H](CCC(N)=O)C(=O)N[C@@H](CCC(=O)O)C(=O)N[C@@H](CCCNC(=N)N)C(=O)N[C@@H](CCC(N)=O)C(=O)N[C@@H](CCCCN)C(=O)N[C@@H](CCCCN)C(=O)NC(C)(C)C(=O)N[C@@H](CCCNC(=N)N)C(=O)N[C@@H](CCC(=O)O)C(=O)N[C@@H](CCC(N)=O)C(=O)N[C@@H](C)C(=O)N[C@@H](CCC(=O)O)C(=O)N[C@H](C(=O)N[C@@H](CC(N)=O)C(=O)N[C@@H](CCCCN)C(=O)N[C@@H](CCC(N)=O)C(=O)N[C@H](C(=O)N[C@@H](CC(C)C)C(=O)N[C@@H](C)C(=O)N[C@@H](CCC(N)=O)C(=O)N[C@H](C(N)=O)C(C)C)[C@@H](C)CC)[C@@H](C)O)[C@@H](C)CC)C(C)C)C(C)C [compound 98] (H-IVLSLDVPIKLK([AEEA-AEEA-γGlu-C18 diacid])QKLLKQERQKK[Aib]REQAETNKQILAQV-NH2; N-terminus assumed) |
| 0.81 nM | 16.1 nM | CC[C@H](C)[C@H](N)C(=O)N[C@H](C(=O)N[C@@H](CC(C)C)C(=O)N[C@@H](CO)C(=O)N[C@@H](CC(C)C)C(=O)N[C@@H](CC(=O)O)C(=O)N[C@H](C(=O)N1CCC[C@H]1C(=O)N[C@H](C(=O)N[C@@H](CCCCN)C(=O)N[C@@H](CC(C)C)C(=O)N[C@@H](CCCCNC(=O)COCCOCCNC(=O)COCCOCCNC(=O)CC[C@H](NC(=O)CCCCCCCCCCCCCCCCC(=O)O)C(=O)O)C(=O)N[C@@H](CCC(N)=O)C(=O)N[C@H](C(=O)N[C@@H](CC(C)C)C(=O)N[C@@H](CC(C)C)C(=O)N[C@@H](CCCCN)C(=O)N[C@@H](CCC(N)=O)C(=O)N[C@@H](CCC(=O)O)C(=O)N[C@@H](CCCNC(=N)N)C(=O)N[C@@H](CCC(N)=O)C(=O)N[C@@H](CCCCN)C(=O)NC(C)(C)C(=O)N[C@@H](CCC(N)=O)C(=O)N[C@@H](CCCNC(=N)N)C(=O)N[C@@H](CCC(=O)O)C(=O)N[C@@H](CCC(N)=O)C(=O)N[C@@H](C)C(=O)N[C@@H](CCC(=O)O)C(=O)N[C@H](C(=O)N[C@@H](CC(N)=O)C(=O)N[C@@H](CCCCN)C(=O)N[C@@H](CCC(N)=O)C(=O)N[C@H](C(=O)N[C@@H](CC(C)C)C(=O)N[C@@H](CCC(=O)O)C(=O)N[C@@H](CCCNC(=N)N)C(=O)N[C@H](C(N)=O)C(C)C)[C@@H](C)CC)[C@@H](C)O)[C@@H](C)CC)[C@@H](C)CC)C(C)C)C(C)C [compound 107] (H-IVLSLDVPIKLK([AEEA-AEEA-γGlu-C18 diacid])QILLKQERQK[Aib]QREQAETNKQILERV-NH2) |
| 2.77 nM | – | CC[C@H](C)[C@H](N)C(=O)N[C@H](C(=O)N[C@@H](CC(C)C)C(=O)N[C@@H](CO)C(=O)N[C@@H](CC(C)C)C(=O)N[C@@H](CC(=O)O)C(=O)N[C@H](C(=O)N1CCC[C@H]1C(=O)N[C@H](C(=O)N[C@@H](CCCCN)C(=O)N[C@@H](CC(C)C)C(=O)N[C@@H](CCCCNC(=O)COCCOCCNC(=O)COCCOCCNC(=O)CC[C@H](NC(=O)CCCCCCCCCCCCCCCCC(=O)O)C(=O)O)C(=O)N[C@@H](CCC(N)=O)C(=O)N[C@H](C(=O)N[C@@H](CC(C)C)C(=O)N[C@@H](CC(C)C)C(=O)N[C@@H](CCCCN)C(=O)N[C@@H](CCC(N)=O)C(=O)N[C@@H](CCC(=O)O)C(=O)N[C@@H](CCCNC(=N)N)C(=O)N[C@@H](CCC(N)=O)C(=O)N[C@@H](CCCCN)C(=O)NC(C)(C)C(=O)N[C@@H](CCC(N)=O)C(=O)N[C@@H](CCCNC(=N)N)C(=O)N[C@@H](CCC(=O)O)C(=O)N[C@@H](CCC(N)=O)C(=O)N[C@@H](C)C(=O)N[C@@H](CCC(=O)O)C(=O)N[C@@H](CCCCN)C(=O)N[C@@H](CC(N)=O)C(=O)N[C@@H](CCCCN)C(=O)N[C@@H](CCC(N)=O)C(=O)N[C@H](C(=O)N[C@@H](CC(C)C)C(=O)N[C@@H](CCC(=O)O)C(=O)N[C@@H](CCCNC(=N)N)C(=O)N[C@H](C(N)=O)C(C)C)[C@@H](C)CC)[C@@H](C)CC)[C@@H](C)CC)C(C)C)C(C)C [compound 115] (H-IVLSLDVPIKLK([AEEA-AEEA-γGlu-C18 diacid])QILLKQERQK[Aib]QREQAEKNKQILERV-NH2; N-terminus assumed) |
| 1.27 nM | 61.1 nM | CC[C@H](C)[C@H](N)C(=O)N[C@H](C(=O)N[C@@H](CC(C)C)C(=O)N[C@@H](CO)C(=O)N[C@@H](CC(C)C)C(=O)N[C@@H](CC(=O)O)C(=O)N[C@H](C(=O)N1CCC[C@H]1C(=O)N[C@H](C(=O)N[C@@H](CCCCN)C(=O)N[C@@H](CC(C)C)C(=O)N[C@@H](CCCCNC(=O)COCCOCCNC(=O)COCCOCCNC(=O)CC[C@H](NC(=O)CCCCCCCCCCCCCCCCC(=O)O)C(=O)O)C(=O)N[C@@H](CCC(N)=O)C(=O)N[C@H](C(=O)N[C@@H](CC(C)C)C(=O)N[C@@H](CC(C)C)C(=O)N[C@@H](CCCCN)C(=O)N[C@@H](CCC(N)=O)C(=O)N[C@@H](CCC(=O)O)C(=O)N[C@@H](CCCNC(=N)N)C(=O)N[C@@H](CCC(N)=O)C(=O)N[C@@H](CCCCN)C(=O)N[C@@H](CCCCN)C(=O)N[C@@H](CCC(N)=O)C(=O)N[C@@H](CCCNC(=N)N)C(=O)N[C@@H](CCC(=O)O)C(=O)N[C@@H](CCC(N)=O)C(=O)N[C@@H](C)C(=O)N[C@@H](CCC(=O)O)C(=O)N[C@@H](CCCCN)C(=O)N[C@@H](CC(N)=O)C(=O)N[C@@H](CCCCN)C(=O)N[C@@H](CCC(N)=O)C(=O)N[C@H](C(=O)N[C@@H](CC(C)C)C(=O)N[C@@H](CCC(=O)O)C(=O)N[C@@H](CCC(N)=O)C(=O)N[C@H](C(N)=O)C(C)C)[C@@H](C)CC)[C@@H](C)CC)[C@@H](C)CC)C(C)C)C(C)C [compound 120] (H-IVLSLDVPIKLK([AEEA-AEEA-γGlu-C18 diacid])QILLKQERQKKQREQAEKNKQILEQV-NH2) |
| 0.16 nM | 5.14 nM | CC[C@H](C)[C@H](N)C(=O)N[C@H](C(=O)N[C@@H](CC(C)C)C(=O)N[C@@H](CO)C(=O)N[C@@H](CC(C)C)C(=O)N[C@@H](CC(=O)O)C(=O)N[C@@H](C(=O)N1CCC[C@H]1C(=O)N[C@H](C(=O)N[C@@H](CCCCN)C(=O)N[C@@H](CC(C)C)C(=O)N[C@@H](CCCCNC(=O)COCCOCCNC(=O)COCCOCCNC(=O)CC[C@H](NC(=O)CCCCCCCCCCCCCCCCC(=O)O)C(=O)O)C(=O)N[C@@H](CCC(N)=O)C(=O)N[C@H](C(=O)N[C@@H](CC(C)C)C(=O)N[C@@H](CC(C)C)C(=O)N[C@@H](CCC(=O)O)C(=O)N[C@@H](CCC(N)=O)C(=O)N[C@@H](C)C(=O)N[C@@H](CCCCN)C(=O)N[C@@H](CCC(N)=O)C(=O)N[C@@H](CCCCN)C(=O)NC(C)(C)C(=O)N[C@@H](CCC(N)=O)C(=O)N[C@@H](CCCNC(=N)N)C(=O)N[C@@H](CCC(=O)O)C(=O)N[C@@H](CCC(N)=O)C(=O)N[C@@H](C)C(=O)N[C@@H](CCC(=O)O)C(=O)N[C@@H](CCCCN)C(=O)N[C@@H](CC(N)=O)C(=O)N[C@@H](CCCCN)C(=O)N[C@@H](CCCNC(=N)N)C(=O)N[C@H](C(=O)N[C@@H](CC(C)C)C(=O)N[C@@H](CCC(=O)O)C(=O)N[C@@H](CCCNC(=N)N)C(=O)N[C@H](C(N)=O)C(C)C)[C@@H](C)CC)[C@@H](C)CC)[C@@H](C)CC)C(C)C)C(C)C [compound 127] (H-IVLSLD[dV]PIKLK([AEEA-AEEA-γGlu-C18 diacid])QILLEQAKQK[Aib]QREQAEKNKRILERV-NH2; N-terminus assumed) |
| 0.64 nM | 20.1 nM | CC[C@H](C)[C@H](N)C(=O)N[C@H](C(=O)N[C@@H](CC(C)C)C(=O)N[C@@H](CO)C(=O)N[C@@H](CC(C)C)C(=O)N[C@@H](CC(=O)O)C(=O)N[C@@H](C(=O)N1CCC[C@H]1C(=O)N[C@H](C(=O)N[C@@H](CCCCN)C(=O)N[C@@H](CC(C)C)C(=O)N[C@@H](CCCCNC(=O)COCCOCCNC(=O)COCCOCCNC(=O)CC[C@H](NC(=O)CCCCCCCCCCCCCCCCC(=O)O)C(=O)O)C(=O)N[C@@H](CCC(N)=O)C(=O)N[C@H](C(=O)N[C@@H](CC(C)C)C(=O)N[C@@H](CC(C)C)C(=O)N[C@@H](CCCCN)C(=O)N[C@@H](CCC(N)=O)C(=O)N[C@@H](C)C(=O)N[C@@H](CCCNC(=N)N)C(=O)N[C@@H](CCC(N)=O)C(=O)N[C@@H](CCCCN)C(=O)NC(C)(C)C(=O)N[C@@H](CCC(N)=O)C(=O)N[C@@H](CCCNC(=N)N)C(=O)N[C@@H](CCC(=O)O)C(=O)N[C@@H](CCC(N)=O)C(=O)N[C@@H](C)C(=O)N[C@@H](CCC(=O)O)C(=O)N[C@@H](CCCCN)C(=O)N[C@@H](CC(N)=O)C(=O)N[C@@H](CCCCN)C(=O)N[C@@H](CCCNC(=N)N)C(=O)N[C@H](C(=O)N[C@@H](CC(C)C)C(=O)N[C@@H](CCC(=O)O)C(=O)N[C@@H](CCCNC(=N)N)C(=O)N[C@H](C(N)=O)C(C)C)[C@@H](C)CC)[C@@H](C)CC)[C@@H](C)CC)C(C)C)C(C)C [compound 128] (H-IVLSLD[dV]PIKLK([AEEA-AEEA-γGlu-C18 diacid])QILLKQARQK[Aib]QREQAEKNKRILERV-NH2; N-terminus assumed) |
